This note sets out measurements from ChEMBL document CHEMBL3421543, “Melanocortin antagonist tetrapeptides with minimal agonist activity at the mouse melanocortin-3 receptor” (ACS Med Chem Lett, 2015).

Active and inactive are the calls of the source. The calls are words filed in the database; no cut-off is given here. Where a SMILES comes first, the peptide text is derived from it. [ ]: non-standard residue; d: D form. dPhe(4-I) = N[C@H](Cc1ccc(I)cc1)C(=O)O Where only a bound is given, the exact number is not on record here.

Holding throughout (format): cell-based
The target of experiment [1] is T1, Melanocortin receptor 3 (Mus musculus, UniProt P33033). Nature of the experiment: (§1) Antagonist activity at mouse melanocortin-3 receptor transfected in HEK293 cells assessed as inhibition of MTII-induced response after 6 hrs by Schild analysis. Particulars: read-out: pA2 (converted).
T1 sequence (P33033 whole entry): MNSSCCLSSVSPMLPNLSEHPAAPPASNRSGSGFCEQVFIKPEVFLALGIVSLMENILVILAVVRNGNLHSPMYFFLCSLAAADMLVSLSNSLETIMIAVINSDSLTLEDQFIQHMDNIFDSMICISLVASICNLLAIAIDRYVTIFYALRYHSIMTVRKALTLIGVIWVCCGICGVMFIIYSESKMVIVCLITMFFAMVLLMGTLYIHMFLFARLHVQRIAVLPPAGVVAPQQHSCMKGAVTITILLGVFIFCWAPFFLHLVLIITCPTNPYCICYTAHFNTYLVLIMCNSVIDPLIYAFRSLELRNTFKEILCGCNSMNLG
The target of experiment [2] is T2, Melanocortin receptor 4 (Mus musculus, UniProt P56450). As to the kind of experiment: (§2) Antagonist activity at mouse melanocortin-4 receptor transfected in HEK293 cells assessed as inhibition of MTII-induced response after 6 hrs by Schild analysis. Particulars: for Kb: read-out: pA2 (converted).
T2 sequence (P56450 whole entry): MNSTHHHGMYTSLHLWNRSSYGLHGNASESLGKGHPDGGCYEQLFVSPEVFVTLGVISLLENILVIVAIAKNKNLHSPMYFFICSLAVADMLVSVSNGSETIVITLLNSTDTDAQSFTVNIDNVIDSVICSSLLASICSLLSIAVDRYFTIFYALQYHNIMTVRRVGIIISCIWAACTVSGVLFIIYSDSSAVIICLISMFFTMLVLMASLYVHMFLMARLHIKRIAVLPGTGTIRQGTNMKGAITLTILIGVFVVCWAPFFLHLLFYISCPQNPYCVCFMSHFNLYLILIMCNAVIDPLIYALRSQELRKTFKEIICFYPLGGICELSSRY
In experiment [3] the target is T2, Melanocortin receptor 4. Nature of the experiment: Agonist activity at mouse melanocortin-4 receptor transfected in HEK293 cells after 6 hrs by beta-galactosidase reporter gene assay.
In experiment [4] the target is Melanocyte-stimulating hormone receptor (Mus musculus, UniProt Q01727). As to the kind of experiment: Agonist activity at mouse melanocortin-1 receptor transfected in HEK293 cells after 6 hrs by beta-galactosidase reporter gene assay.
Sequence of Melanocyte-stimulating hormone receptor (Q01727 whole entry): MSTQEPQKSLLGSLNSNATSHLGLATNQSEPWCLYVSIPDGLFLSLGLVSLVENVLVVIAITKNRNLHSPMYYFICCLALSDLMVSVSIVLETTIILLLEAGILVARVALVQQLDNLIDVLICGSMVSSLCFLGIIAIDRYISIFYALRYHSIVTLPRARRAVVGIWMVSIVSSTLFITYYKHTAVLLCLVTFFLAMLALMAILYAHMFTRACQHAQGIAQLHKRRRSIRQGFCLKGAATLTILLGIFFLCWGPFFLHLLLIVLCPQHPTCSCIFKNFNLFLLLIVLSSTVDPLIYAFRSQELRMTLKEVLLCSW
Another experiment addresses Melanocortin receptor 5 (Mus musculus, UniProt P41149). As to the kind of experiment: Agonist activity at mouse melanocortin-5 receptor transfected in HEK293 cells after 6 hrs by beta-galactosidase reporter gene assay.
For experiment [5], the target named is T1, Melanocortin receptor 3. Nature of the experiment: Agonist activity at mouse melanocortin-3 receptor transfected in HEK293 cells after 6 hrs by beta-galactosidase reporter gene assay. On the technique in general: In a reporter assay the amount or activity of a reporter protein is the signal.
For experiment [6], the target named is Melanocortin receptor 3 (Mus musculus) (UniProt P33033). Nature of the experiment: Agonist activity at mouse melanocortin-3 receptor transfected in HEK293 cells at 1 uM after 6 hrs by beta-galactosidase reporter gene assay relative to MTII-induced maximal response.
Sequence of Melanocortin receptor 3 (Mus musculus) (P33033 whole entry): as the sequence (P33033 whole entry) above
The target is the same in experiment [7]. As to the kind of experiment: Agonist activity at mouse melanocortin-3 receptor transfected in HEK293 cells at 100 uM after 6 hrs by beta-galactosidase reporter gene assay relative to MTII-induced maximal response.
The target in experiment [8] is Melanocortin receptor 4 (Mus musculus) (UniProt P56450). Nature of the experiment: Agonist activity at mouse melanocortin-4 receptor transfected in HEK293 cells at 100 uM after 6 hrs by beta-galactosidase reporter gene assay relative to MTII-induced maximal response.
Sequence of Melanocortin receptor 4 (Mus musculus) (P56450 whole entry): as the sequence (P56450 whole entry) above
Experiment [9] deals with Melanocortin receptor 3 (Mus musculus) (UniProt P33033). As to the kind of experiment: Antagonist activity at mouse melanocortin-3 receptor transfected in HEK293 cells assessed as inhibition of MTII-induced response up to 100 uM after 6 hrs by Schild analysis.
The target in experiment [10] is Melanocortin receptor 4 (Mus musculus) (UniProt P56450). Described as §2.
The target of experiment [11] is Melanocortin receptor 3 (Mus musculus) (UniProt P33033). As to the kind of experiment: Antagonist activity at mouse melanocortin-3 receptor transfected in HEK293 cells assessed as inhibition of MTII-induced response up to 10 uM after 6 hrs by Schild analysis.
Experiment [12] has the same target. Described as §1.

Sequence of Melanocortin receptor 5 (P41149 whole entry): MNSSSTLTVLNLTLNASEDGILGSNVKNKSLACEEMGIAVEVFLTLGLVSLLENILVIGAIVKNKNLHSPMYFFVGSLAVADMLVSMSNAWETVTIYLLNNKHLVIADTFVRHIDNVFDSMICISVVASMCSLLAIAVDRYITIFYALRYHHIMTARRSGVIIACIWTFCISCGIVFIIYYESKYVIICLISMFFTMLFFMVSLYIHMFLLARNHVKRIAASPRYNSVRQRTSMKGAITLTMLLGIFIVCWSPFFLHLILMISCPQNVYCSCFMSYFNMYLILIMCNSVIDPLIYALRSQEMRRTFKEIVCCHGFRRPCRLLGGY

Turning to `CC(=O)N[C@@H](Cc1c[nH]c2ccccc12)C(=O)N[C@H](Cc1ccc(I)cc1)C(=O)N[C@@H](CCCNC(=N)N)C(=O)N[C@H](Cc1ccc2ccccc2c1)C(N)=O`, the Kb is 2000 nM at Melanocortin receptor 3 [1] and 5.01 nM at Melanocortin receptor 4 [2]. At Melanocortin receptor 4 [2], the Ki (usually a measure of affinity in units of concentration, obtained from inhibition or displacement) was less than 6 nM. Besides, the EC50 (usually the midpoint of the concentration-response curve) at Melanocortin receptor 4 [3] was more than 100000 nM; in [4] it was 5800 nM; at Melanocortin receptor 5, 19700 nM; at Melanocortin receptor 3 [5] it was more than 100000 nM.

For the molecule `CC(=O)N[C@@H](Cc1c[nH]c2ccccc12)C(=O)N[C@H](Cc1ccc(I)cc1)C(=O)N[C@@H](CCCNC(=N)N)C(=O)N[C@@H](Cc1ccc2ccccc2c1)C(N)=O`, the Kb was 1260 nM at Melanocortin receptor 3 [1] and 5.01 nM at Melanocortin receptor 4 [2]. Also, at Melanocortin receptor 4 [2], the Ki is less than 6 nM. Further, the EC50 is more than 100000 nM at Melanocortin receptor 4 [3], 5500 nM in experiment [4], 20300 nM at Melanocortin receptor 5 and more than 100000 nM on Melanocortin receptor 3 [5].

`CC(=O)N[C@@H](Cc1cnc[nH]1)C(=O)N[C@H](Cc1ccccc1)C(=O)N[C@@H](CCCN=C(N)N)C(=O)N[C@@H](Cc1c[nH]c2ccccc12)C(N)=O`: the figures for the EC50 at Melanocortin receptor 4 [3] and on Melanocortin receptor 5 were 5.4 nM and 4.6 nM, respectively.

`CCCC[C@H](NC(C)=O)C(=O)N[C@H]1CC(=O)NCCCC[C@@H](C(N)=O)NC(=O)[C@H](Cc2c[nH]c3ccccc23)NC(=O)[C@H](CCCNC(=N)N)NC(=O)[C@@H](Cc2ccc3ccccc3c2)NC(=O)[C@H](Cc2c[nH]cn2)NC1=O`: the Activity in [6] stood at 54%. For the same molecule, the half-maximal effective concentration (EC50) in experiment [4] came out at 0.67 nM.

As to `CC(=O)N[C@@H](Cc1c[nH]c2ccccc12)C(=O)N[C@H](Cc1ccc(I)cc1)C(=O)N[C@@H](CCCNC(=N)N)C(=O)N[C@@H](Cc1c[nH]c2ccccc12)C(N)=O` (Ac-W[dPhe(4-I)]RW-NH2), the 50% effective concentration (EC50) on Melanocortin receptor 4 [3] was more than 100000 nM; in experiment [4], 2000 nM; at Melanocortin receptor 5, 2800 nM; at Melanocortin receptor 3 [5], more than 100000 nM.

On to `CC(=O)N[C@@H](Cc1c[nH]c2ccccc12)C(=O)N[C@H](Cc1ccc(I)cc1)C(=O)N[C@@H](CCCNC(=N)N)C(=O)N[C@@H](Cc1ccccc1)C(N)=O`, for which the results for the Activity in [7] and in experiment [8] were 66% and 44%, respectively. In addition, on Melanocortin receptor 4 [2], the Kb was 158 nM. Further, the EC50 worked out at 6500 nM in experiment [4] and 1800 nM at Melanocortin receptor 5.

For the molecule `CC(=O)N[C@@H](Cc1c[nH]c2ccccc12)C(=O)N[C@H](Cc1ccc(I)cc1)C(=O)N[C@@H](CCCNC(=N)N)C(=O)N[C@@H](Cc1csc2ccccc12)C(N)=O`, the Kb on Melanocortin receptor 4 [2] was 79.4 nM. The inhibition result in experiment [9] is “inactive”. In addition, the concentration giving a half-maximal response (EC50) at Melanocortin receptor 4 [3] was more than 100000 nM; in experiment [4], 8300 nM; at Melanocortin receptor 5, 23700 nM; at Melanocortin receptor 3 [5], more than 100000 nM.

As to `CC(=O)N[C@@H](Cc1c[nH]c2ccccc12)C(=O)N[C@H](Cc1ccc(I)cc1)C(=O)N[C@@H](CCCNC(=N)N)C(=O)N1Cc2ccccc2C[C@H]1C(N)=O`, the Activity in [7] was found to be 48%; in experiment [8], 44%. In experiment [10], the INH came out at 1 µM. The Kb on Melanocortin receptor 4 [2] was 1000 nM. Moreover, the inhibition result in [11] was “inactive”. The half-maximal effective concentration (EC50) in experiment [4] is 2700 nM; on Melanocortin receptor 5, 5300 nM.

As to `CC(=O)N[C@@H](Cc1cnc[nH]1)C(=O)N[C@H](Cc1ccccc1)C(=O)N[C@@H](CCCNC(=N)N)C(=O)N[C@@H](Cc1c[nH]c2ccccc12)C(N)=O`, the pA2 result in experiment [12] and in [10] was “inactive” in each case.

In the case of `CC(=O)N[C@@H](Cc1c[nH]c2ccccc12)C(=O)N[C@H](Cc1ccc(I)cc1)C(=O)N[C@@H](CCCNC(=N)N)C(=O)N[C@@H](Cc1ccc(-c2ccccc2)cc1)C(N)=O`, the INH in experiment [10] came out at 0.48 µM. Moreover, the Kb on Melanocortin receptor 4 [2] is 501 nM. For the same molecule, the inhibition result in experiment [9] was “inactive”. Also, the 50% effective concentration (EC50) at Melanocortin receptor 4 [3] was more than 100000 nM; in experiment [4] it was 20700 nM; on Melanocortin receptor 5 it was 7800 nM; at Melanocortin receptor 3 [5], more than 100000 nM.
